Like-named read-outs stand apart in the source and are kept apart here.
Legend:
[1] = biological target: recombinant human HPK1 (Homo sapiens (Human), UniProt Q92918); assay: HPK1 kinase assay (ADP-Glo); format: biochemical; settings: 25 μM ATP, MBP substrate
In short: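 Activity was read as ADP formed, detected by ADP-Glo luminescence after the reaction of 5 ng recombinant human HPK1 with MBP and ATP (stocks 0.5 μg/μl and 25 μM) for 40 min at 30 °C. Buffer was Tris pH 7.5 with MgCl2, BSA and DTT, with compound in 0.5% DMSO. IC50 came from inhibition curves.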

[2] = test system: human peripheral blood pan T cells; assay: IFNγ and IL-2 analysis of human peripheral pan T cells; format: cell-based; settings: T-cell, CD3/CD28 bead stimulation, 100 nM Prostaglandin E2, 24 hr
Experimental: IFNγ and IL-2 Analysis of Human Peripheral Pan T Cells
Human peripheral blood pan T cells were purchased from STEMCELL™ Technologies Inc. Human peripheral blood pan T cells were thawed and suspended in DMEM media (10% FBS and 10 Penicillin/Streptomycin). 8×10^4 T cells were seeded in 96-well plate and incubated with various concentration of compounds and 100 nM Prostaglandin E2 for 1 hr. T cells were stimulated with Dynabeads Human T-Activator CD3/CD28 (Life Technologies) at a 1:3 cells: beads ratio. […] Data were analyzed with an MESO Quickplex SQ120 (Mesoscale Discovery).
In Table 3, the values represent + for >1000 nM, ++ 200-1,000 nM, +++ for <200 nM and − for not determined.

[3] = IFNγ secretion, read-out: IFNγ (EC50)
[4] = IL-2 secretion, read-out: IL-2 (EC50)

recombinant human HPK1, sequence (Q92918 whole entry): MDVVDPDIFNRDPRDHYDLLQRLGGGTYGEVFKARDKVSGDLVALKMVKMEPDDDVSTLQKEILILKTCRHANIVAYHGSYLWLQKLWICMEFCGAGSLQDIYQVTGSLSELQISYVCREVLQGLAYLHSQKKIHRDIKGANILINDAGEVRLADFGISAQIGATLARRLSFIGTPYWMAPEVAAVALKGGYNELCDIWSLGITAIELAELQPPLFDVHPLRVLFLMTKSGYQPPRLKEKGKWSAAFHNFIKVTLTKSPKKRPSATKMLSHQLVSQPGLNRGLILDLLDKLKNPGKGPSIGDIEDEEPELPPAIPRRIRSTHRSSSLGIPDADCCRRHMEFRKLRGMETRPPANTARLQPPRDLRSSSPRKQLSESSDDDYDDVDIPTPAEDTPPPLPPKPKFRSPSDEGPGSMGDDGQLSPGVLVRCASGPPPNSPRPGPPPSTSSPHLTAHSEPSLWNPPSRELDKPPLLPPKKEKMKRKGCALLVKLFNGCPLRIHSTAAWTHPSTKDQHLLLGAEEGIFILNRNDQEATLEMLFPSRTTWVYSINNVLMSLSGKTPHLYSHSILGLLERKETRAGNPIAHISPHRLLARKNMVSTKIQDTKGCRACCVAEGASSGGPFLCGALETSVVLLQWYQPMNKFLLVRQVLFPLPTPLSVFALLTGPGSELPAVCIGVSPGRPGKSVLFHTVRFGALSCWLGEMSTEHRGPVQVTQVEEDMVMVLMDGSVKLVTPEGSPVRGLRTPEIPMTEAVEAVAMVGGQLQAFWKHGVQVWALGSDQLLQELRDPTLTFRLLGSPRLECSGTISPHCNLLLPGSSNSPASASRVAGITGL

| Structure (SMILES) | IC50 [1] [nM] | EC50 [2, 3] [nM] | EC50 [2, 4] [nM] |
| --- | --- | --- | --- |
| CC(=O)N(C)c1c(F)c(Cl)c(-c2ccc3nc(NC(=O)[C@@H]4C[C@@H]4F)sc3c2)c2cn[nH]c12 [Example 123, (1S,2S)-N-(6-(5-chloro-6-fluoro-7-(N-methylacetamido)-1H-indazol-4-yl)benzo[d]thiazol-2-yl)-2-fluorocyclopropane-1-carboxamide] | < 100 | 200 to 1000 | > 1000 |
| CCNc1c(F)c(CC)c(-c2ccn3nc(NC(=O)[C@@H]4C[C@@H]4F)cc3c2)c2cn[nH]c12 [Example 524, (1S,2S)-N-(5-(5-ethyl-7-(ethylamino)-6-fluoro-1H-indazol-4-yl)pyrazolo[1,5-a]pyridin-2-yl)-2-fluorocyclopropane-1-carboxamide] | < 100 | < 200 | < 200 |
| CCOc1c(F)c(C)c(-c2ccn3nc(NC(=O)[C@@H]4C[C@@H]4F)cc3c2)c2cn[nH]c12 [Example 509, (1S,2S)-N-(5-(7-ethoxy-6-fluoro-5-methyl-1H-indazol-4-yl)pyrazolo[1,5-a]pyridin-2-yl)-2-fluorocyclopropane-1-carboxamide] | < 100 | < 200 | 200 to 1000 |
| CCc1c(F)c(SCC#N)c2[nH]ncc2c1-c1ccn2nc(NC(=O)[C@@H]3C[C@@H]3F)cc2c1 [Example 588, (1S,2S)-N-(5-(7-((cyanomethyl)thio)-5-ethyl-6-fluoro-1H-indazol-4-yl)pyrazolo[1,5-a]pyridin-2-yl)-2-fluorocyclopropane-1-carboxamide] | < 100 | < 200 | < 200 |
| CN(C)c1c(F)c(Cl)c(-c2ccn3nc(NC(=O)[C@@H]4C[C@@H]4F)cc3c2)c2cn[nH]c12 [Example 484, (1S,2S)-N-(5-(5-chloro-7-(dimethylamino)-6-fluoro-1H-indazol-4-yl)pyrazolo[1,5-a]pyridin-2-yl)-2-fluorocyclopropane-1-carboxamide] | < 100 | < 200 | 200 to 1000 |
| Cc1c(F)c(C(=O)N(C)C)c2[nH]ncc2c1-c1ccc2nc(NC(=O)[C@@H]3C[C@@H]3F)cn2c1 [Example 329, 6-fluoro-4-(2-((1S,2S)-2-fluorocyclopropane-1-carboxamido)imidazo[1,2-a]pyridin-6-yl)-N,N,5-trimethyl-1H-indazole-7-carboxamide] | < 100 | 200 to 1000 | 200 to 1000 |
| CN(C)c1c(F)c(C(F)(F)F)c(-c2ccn3nc(NC(=O)[C@@H]4C[C@@H]4F)cc3c2)c2cn[nH]c12 [Example 565, (1S,2S)-N-(5-(7-(dimethylamino)-6-fluoro-5-(trifluoromethyl)-1H-indazol-4-yl)pyrazolo[1,5-a]pyridin-2-yl)-2-fluorocyclopropane-1-carboxamide] | < 100 | 200 to 1000 | 200 to 1000 |
| CSc1c(F)c(SC)c2[nH]ncc2c1-c1ccc2nc(NC(=O)[C@@H]3C[C@@H]3F)cn2c1 [Example 297, (1S,2S)-2-fluoro-N-(6-(6-fluoro-5,7-bis(methylthio)-1H-indazol-4-yl)imidazo[1,2-a]pyridin-2-yl)cyclopropane-1-carboxamide] | < 100 | < 200 | < 200 |
| CCc1c(F)c(N(C)CC)c2[nH]ncc2c1-c1ccc2nc(NC(=O)[C@@H]3C[C@@H]3F)cn2c1 [Example 326, (1S,2S)-N-(6-(5-ethyl-7-(ethyl(methyl)amino)-6-fluoro-1H-indazol-4-yl)imidazo[1,2-a]pyridin-2-yl)-2-fluorocyclopropane-1-carboxamide] | < 100 | 200 to 1000 | 200 to 1000 |
| CN(c1c(F)c(Cl)c(-c2ccc3nc(NC(=O)[C@@H]4C[C@@H]4F)cn3c2)c2cn[nH]c12)C1CC1 [Example 361, (1S,2S)-N-(6-(5-chloro-7-(cyclopropyl(methyl)amino)-6-fluoro-1H-indazol-4-yl)imidazo[1,2-a]pyridin-2-yl)-2-fluorocyclopropane-1-carboxamide] | < 100 | 200 to 1000 | > 1000 |

— US11649255B2, “Indazoles as hematopoietic progenitor kinase 1 (HPK1) inhibitors and methods using same” (1st Biotherapeutics, Inc., priority 2020, dated 2023)
